According to patent US20100247600A1, “THERAPEUTIC DRUG ELUTING IMPLANT COVER AND METHOD OF MAKING THE SAME” (Warsaw Orthopedic, Inc., priority 2009, published 2010):

Assay: Effect of autoclave sterilization on final drug concentration in silicone sleeve
Type: physicochemical
Conditions: rifampin in silicone sleeve, starting concentration about 0.0738 wt %, autoclave about 30 minutes
Protocol: FIG. 18 illustrates the effect of sterilization on the final drug concentration, showing the degradation rate versus autoclave time, for example, with a starting concentration of about 0.0738 wt % rifampin in the silicone and running the autoclave about 30 minutes will result in a final concentration of about 0.054 wt % rifampin in the silicone sleeve.
The term “weight percent” or “wt %” means the ratio of the drug weight to the weight of the biocompatible matrix, e.g., the silicone after sterilization, for example, an initial concentration of rifampin of about 0.0738 wt % with about a 30 minute autoclave time will result in a final wt % of about 0.054 in the sterilized product. Other than where expressly indicated, all numbers expressing amounts of materials, concentrations, quantified properties of materials, and so forth, stated in the specification and claims are to be understood as being modified in all instances by the term “about” or “approximately”.

final concentration after autoclave sterilization: about 0.054 wt %
SMILES: CO[C@H]1/C=C/O[C@@]2(C)Oc3c(C)c(O)c4c(O)c(c(/C=N/N5CCN(C)CC5)c(O)c4c3C2=O)NC(=O)/C(C)=C\C=C\[C@H](C)[C@H](O)[C@@H](C)[C@@H](O)[C@@H](C)[C@H](OC(C)=O)[C@@H]1C [rifampin]
